Where “and” joins values, the source holds several entries; their conditions need not be identical. Identical values can stand only once. Like-named read-outs stand apart in the source and are kept apart here.
Columns and labels:
BZW2 = target: T1, BZW2 (Homo sapiens, UniProt Q9Y6E2); experiment: Competition binding assay in cell lysate, affinity matrix, MS
T1 construct: endogenous in cells
T1 sequence (Q9Y6E2 1-419): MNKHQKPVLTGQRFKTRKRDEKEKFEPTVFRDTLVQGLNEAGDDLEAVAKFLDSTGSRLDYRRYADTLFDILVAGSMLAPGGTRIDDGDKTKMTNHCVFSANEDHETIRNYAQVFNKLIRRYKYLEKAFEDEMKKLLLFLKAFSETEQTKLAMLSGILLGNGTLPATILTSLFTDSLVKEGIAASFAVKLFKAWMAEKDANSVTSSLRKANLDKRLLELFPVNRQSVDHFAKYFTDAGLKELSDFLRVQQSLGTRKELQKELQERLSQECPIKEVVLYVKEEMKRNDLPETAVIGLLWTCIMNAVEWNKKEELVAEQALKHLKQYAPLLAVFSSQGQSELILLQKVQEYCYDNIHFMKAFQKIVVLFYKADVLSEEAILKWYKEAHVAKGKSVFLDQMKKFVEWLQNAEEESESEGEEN

HSPD1 = target: T2, HSPD1 (Homo sapiens, UniProt P10809); experiment: as above
T2 construct: endogenous in cells
T2 sequence (P10809 27-573): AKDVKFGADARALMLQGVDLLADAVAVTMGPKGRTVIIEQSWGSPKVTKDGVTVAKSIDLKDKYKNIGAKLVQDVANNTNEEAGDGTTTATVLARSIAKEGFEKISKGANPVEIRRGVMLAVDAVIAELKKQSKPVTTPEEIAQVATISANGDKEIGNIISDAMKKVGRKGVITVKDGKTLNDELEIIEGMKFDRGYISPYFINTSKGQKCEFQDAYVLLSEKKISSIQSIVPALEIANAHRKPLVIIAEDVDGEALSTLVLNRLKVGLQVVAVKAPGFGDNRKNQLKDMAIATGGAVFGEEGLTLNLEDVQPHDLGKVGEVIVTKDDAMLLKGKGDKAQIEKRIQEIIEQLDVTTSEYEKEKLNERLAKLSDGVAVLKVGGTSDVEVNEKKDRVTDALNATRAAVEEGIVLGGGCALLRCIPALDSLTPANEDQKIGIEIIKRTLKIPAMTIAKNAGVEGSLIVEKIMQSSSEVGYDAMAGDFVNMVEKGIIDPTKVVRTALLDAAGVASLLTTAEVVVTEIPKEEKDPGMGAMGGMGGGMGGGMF

ISOC1 = target: T3, ISOC1 (Homo sapiens, UniProt Q96CN7); experiment: as above
T3 construct: endogenous in cells
T3 sequence (Q96CN7 1-298): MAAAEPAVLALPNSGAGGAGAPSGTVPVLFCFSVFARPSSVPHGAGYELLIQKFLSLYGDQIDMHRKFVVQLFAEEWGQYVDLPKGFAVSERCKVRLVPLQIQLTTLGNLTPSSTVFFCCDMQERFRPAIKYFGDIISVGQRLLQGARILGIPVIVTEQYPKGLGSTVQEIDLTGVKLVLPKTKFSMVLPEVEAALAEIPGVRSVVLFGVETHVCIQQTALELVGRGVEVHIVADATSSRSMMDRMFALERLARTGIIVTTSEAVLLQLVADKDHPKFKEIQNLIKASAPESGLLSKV

PPP4C = target: T4, PPP4C (Homo sapiens, UniProt P60510); experiment: as above
T4 construct: endogenous in cells
T4 sequence (P60510 1-307): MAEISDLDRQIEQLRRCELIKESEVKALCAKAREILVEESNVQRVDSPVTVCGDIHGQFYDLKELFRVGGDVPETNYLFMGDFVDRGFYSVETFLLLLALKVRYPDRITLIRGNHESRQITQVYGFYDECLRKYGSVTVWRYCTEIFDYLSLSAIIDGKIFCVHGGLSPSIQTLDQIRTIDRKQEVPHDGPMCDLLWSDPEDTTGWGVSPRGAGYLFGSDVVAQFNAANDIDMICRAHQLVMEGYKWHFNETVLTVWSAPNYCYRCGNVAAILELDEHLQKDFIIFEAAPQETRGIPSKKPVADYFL

SIN3A = details: K-562 cell lysate
DNTTIP1 = experiment: Competition binding assay in cell lysate, affinity matrix, MS; details: K-562 cell lysate
GATAD2B = experiment: Competition binding assay in cell lysate, affinity matrix, MS (Mi-2/NuRD interactor); details: K-562 cell lysate
MBD3 = experiment: as above; details: K-562 cell lysate
MTA3 = experiment: as above
SMARCC2 = experiment: Competition binding assay in cell lysate, affinity matrix, MS (SMRT/NCoR interactor)
RBBP7 = experiment: Competition binding assay in cell lysate, affinity matrix, MS (Sin3/Mi2-NuRD interactor); details: K-562 cell lysate
GATAD2A = experiment: Competition binding assay in cell lysate, affinity matrix, MS (Mi-2/NuRD interactor); details: K-562 cell lysate
HDAC2 = target: T5, HDAC2 (Homo sapiens, UniProt Q92769); experiment: Chemoproteomic binding profiling, K562 cell extract, SAHA/ITF2357 probe matrix (Kd app); details: protein HDAC2; class I HDAC
T5 construct: used to probe endogenous HDACs in K562 whole cell extracts; endogenous in cells

HDAC3 = target: T6, HDAC3 (Homo sapiens, UniProt O15379); experiment: as above; details: for Kd: protein HDAC3, NCoR complex
T6 construct: used to probe endogenous HDACs in K562 whole cell extracts; endogenous in cells
T6 sequence (O15379 whole entry): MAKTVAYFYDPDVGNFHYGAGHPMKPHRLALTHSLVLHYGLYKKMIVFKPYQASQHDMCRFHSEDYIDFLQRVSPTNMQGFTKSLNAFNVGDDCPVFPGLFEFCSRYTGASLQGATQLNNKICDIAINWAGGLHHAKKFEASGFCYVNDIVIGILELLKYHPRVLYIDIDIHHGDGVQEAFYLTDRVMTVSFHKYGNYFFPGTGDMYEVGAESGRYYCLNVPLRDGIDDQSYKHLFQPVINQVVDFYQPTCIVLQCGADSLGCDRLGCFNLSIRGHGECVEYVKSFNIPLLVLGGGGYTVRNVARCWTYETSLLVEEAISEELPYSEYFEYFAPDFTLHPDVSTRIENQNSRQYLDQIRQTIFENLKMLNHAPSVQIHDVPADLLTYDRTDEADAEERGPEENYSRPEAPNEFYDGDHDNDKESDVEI
T6 sequence (O75376 whole entry partner): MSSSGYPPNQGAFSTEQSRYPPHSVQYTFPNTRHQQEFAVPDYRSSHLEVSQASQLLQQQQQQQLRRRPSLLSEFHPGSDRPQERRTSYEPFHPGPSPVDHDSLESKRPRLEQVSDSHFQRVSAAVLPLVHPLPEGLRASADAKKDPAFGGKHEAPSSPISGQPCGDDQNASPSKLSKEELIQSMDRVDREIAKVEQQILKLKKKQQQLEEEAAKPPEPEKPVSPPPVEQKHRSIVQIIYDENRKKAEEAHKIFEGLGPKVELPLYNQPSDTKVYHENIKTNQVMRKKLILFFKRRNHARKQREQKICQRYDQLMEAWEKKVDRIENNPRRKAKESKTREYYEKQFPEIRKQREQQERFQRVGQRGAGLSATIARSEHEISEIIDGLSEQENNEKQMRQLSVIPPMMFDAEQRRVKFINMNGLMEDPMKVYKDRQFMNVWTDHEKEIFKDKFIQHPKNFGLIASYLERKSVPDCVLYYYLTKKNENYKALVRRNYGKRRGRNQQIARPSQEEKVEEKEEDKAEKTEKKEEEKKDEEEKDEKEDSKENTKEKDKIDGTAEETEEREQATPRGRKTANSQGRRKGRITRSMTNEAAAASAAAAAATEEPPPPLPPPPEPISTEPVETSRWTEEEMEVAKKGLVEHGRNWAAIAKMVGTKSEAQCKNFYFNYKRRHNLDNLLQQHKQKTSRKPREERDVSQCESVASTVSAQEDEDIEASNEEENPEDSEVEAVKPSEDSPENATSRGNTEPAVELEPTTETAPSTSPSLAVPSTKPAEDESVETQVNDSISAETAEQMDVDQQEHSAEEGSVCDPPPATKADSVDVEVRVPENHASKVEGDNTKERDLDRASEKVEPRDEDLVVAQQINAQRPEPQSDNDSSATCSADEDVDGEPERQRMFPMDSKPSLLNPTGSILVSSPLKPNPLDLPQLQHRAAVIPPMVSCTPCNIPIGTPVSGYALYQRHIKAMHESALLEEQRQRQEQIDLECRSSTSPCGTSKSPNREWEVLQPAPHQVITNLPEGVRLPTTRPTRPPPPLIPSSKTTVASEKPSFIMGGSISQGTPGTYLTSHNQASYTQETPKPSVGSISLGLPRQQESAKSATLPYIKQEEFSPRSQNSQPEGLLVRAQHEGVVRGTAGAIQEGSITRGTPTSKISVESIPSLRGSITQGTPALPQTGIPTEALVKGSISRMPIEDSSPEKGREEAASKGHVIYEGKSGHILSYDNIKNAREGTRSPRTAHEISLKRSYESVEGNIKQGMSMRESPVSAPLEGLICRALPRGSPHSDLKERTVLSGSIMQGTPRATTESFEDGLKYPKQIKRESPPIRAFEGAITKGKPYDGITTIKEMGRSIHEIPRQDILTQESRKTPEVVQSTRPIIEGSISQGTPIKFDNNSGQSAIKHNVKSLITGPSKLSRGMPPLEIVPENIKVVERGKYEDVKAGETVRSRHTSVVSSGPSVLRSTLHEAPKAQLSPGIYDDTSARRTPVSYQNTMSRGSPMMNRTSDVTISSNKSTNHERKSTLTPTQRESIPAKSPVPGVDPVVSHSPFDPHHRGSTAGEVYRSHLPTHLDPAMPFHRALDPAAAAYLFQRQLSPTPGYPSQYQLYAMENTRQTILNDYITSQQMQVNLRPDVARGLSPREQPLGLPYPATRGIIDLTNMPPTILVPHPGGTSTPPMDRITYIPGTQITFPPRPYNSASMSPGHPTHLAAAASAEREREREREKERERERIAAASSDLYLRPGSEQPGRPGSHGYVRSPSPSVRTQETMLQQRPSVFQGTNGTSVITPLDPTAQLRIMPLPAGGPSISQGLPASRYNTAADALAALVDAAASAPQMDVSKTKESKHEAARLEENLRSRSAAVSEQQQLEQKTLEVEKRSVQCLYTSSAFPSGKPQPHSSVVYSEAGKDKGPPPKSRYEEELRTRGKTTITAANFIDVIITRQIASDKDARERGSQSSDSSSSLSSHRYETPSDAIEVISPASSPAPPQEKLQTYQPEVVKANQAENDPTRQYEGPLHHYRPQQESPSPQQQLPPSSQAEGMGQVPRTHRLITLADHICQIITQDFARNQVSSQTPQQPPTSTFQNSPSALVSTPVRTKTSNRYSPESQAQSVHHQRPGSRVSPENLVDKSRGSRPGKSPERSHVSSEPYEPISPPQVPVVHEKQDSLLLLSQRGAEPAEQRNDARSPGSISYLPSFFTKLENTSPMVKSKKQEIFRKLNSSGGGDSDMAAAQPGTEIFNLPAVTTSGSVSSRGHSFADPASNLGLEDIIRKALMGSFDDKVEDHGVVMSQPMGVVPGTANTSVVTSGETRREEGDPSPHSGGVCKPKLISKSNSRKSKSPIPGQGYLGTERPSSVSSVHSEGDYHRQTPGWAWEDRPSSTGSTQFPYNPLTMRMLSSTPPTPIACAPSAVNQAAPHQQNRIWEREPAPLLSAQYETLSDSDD
T6 sequence (O60907 whole entry partner): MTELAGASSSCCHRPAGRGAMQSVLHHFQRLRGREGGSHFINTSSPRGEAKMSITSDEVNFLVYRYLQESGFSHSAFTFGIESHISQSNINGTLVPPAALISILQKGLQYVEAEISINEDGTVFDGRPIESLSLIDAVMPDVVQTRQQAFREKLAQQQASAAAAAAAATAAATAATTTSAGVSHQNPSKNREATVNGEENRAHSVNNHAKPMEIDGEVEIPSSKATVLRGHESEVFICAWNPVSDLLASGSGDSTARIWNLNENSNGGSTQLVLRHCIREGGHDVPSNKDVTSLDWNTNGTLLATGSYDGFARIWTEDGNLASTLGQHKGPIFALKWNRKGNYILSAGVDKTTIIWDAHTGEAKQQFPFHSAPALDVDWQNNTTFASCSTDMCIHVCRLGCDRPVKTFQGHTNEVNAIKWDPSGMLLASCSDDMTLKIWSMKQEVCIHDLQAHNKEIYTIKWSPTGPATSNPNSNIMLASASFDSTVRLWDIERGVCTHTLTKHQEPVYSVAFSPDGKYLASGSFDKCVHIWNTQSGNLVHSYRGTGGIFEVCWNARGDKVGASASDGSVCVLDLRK
T6 sequence (Q9BZK7 whole entry partner): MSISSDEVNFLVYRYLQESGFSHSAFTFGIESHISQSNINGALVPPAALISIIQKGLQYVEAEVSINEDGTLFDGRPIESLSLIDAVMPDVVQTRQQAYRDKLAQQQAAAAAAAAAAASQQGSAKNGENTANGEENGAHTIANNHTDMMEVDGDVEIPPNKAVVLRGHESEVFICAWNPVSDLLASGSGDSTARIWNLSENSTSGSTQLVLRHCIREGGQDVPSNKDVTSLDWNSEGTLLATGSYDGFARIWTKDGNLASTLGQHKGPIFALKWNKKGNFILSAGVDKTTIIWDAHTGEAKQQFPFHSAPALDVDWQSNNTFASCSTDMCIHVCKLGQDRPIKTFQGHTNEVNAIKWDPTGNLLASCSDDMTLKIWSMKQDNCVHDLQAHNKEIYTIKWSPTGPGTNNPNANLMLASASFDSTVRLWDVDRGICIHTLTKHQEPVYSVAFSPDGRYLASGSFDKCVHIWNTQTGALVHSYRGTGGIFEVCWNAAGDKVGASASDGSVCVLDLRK
T6 sequence (Q13227 whole entry partner): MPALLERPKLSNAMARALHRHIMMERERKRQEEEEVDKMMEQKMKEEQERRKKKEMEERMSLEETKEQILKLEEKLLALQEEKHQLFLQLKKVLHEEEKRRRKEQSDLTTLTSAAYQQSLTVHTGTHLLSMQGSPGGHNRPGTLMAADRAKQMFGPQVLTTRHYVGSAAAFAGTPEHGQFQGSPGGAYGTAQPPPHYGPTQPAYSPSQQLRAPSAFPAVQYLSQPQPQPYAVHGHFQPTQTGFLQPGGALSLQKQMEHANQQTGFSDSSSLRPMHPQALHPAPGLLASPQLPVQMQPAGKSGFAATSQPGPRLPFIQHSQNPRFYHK

HDAC8 = target: T7, HDAC8 (Homo sapiens, UniProt Q9BY41); experiment: as above; details: protein HDAC8; class I HDAC
T7 construct: used to probe endogenous HDACs in K562 whole cell extracts; endogenous in cells

HDAC3-NCoR complex = HDAC3-NCoR complex (Homo sapiens, UniProt O15379); experiment: as above
HDAC3-NCoR complex, sequence (O15379 whole entry, one chain of several): as the sequence (O15379 whole entry) above

[1] = target: MiDAC complex (HDAC1/2, DNTTIP1, CDYL, MIDEAS) (Homo sapiens, UniProt Q13547+Q92769); experiment: as above; design: rows headed: Kd^app CDYL; other: protein CDYL; MiDAC complex; details: protein CDYL
[2] = system: T8, MiDAC complex (HDAC1/2, DNTTIP1, CDYL, MIDEAS); experiment: as above; design: species or system human
T8 construct: Kd^app MIDEAS; other: protein MIDEAS; MiDAC complex; Kd^app DNTTIP1; other: protein DNTTIP1

[3] = mix of Jurkat and Ramos cell lysates
[4] = protein GPS2, read-out: Kd^app GPS2
[5] = protein NCOR1, read-out: Kd^app NCOR1
[6] = protein NCOR2, read-out: Kd^app NCOR2
[7] = protein TBL1X, read-out: Kd^app TBL1X
[8] = protein TBL1XR1, read-out: Kd^app TBL1XR1

## O=C(CCCCCCC(=O)Nc1ccccc1)NO [SAHA, suberoylanilide hydroxamic acid]
BZW2; IC50, BZW2, K-562 cell lysate
  IC50: 3.07 µM
BZW2; IC50, BZW2, mix of Jurkat and Ramos cell lysates
  IC50: 10 µM
HSPD1; IC50, HSPD1, mix of Jurkat and Ramos cell lysates
  IC50: 10 µM
HSPD1; read-out: IC50
  IC50: ≥ 10 µM
ISOC1; IC50, ISOC1, K-562 cell lysate
  IC50: 1.1 µM
ISOC1; IC50, ISOC1, mix of Jurkat and Ramos cell lysates
  IC50: 2.19 µM
PPP4C; IC50, PPP4C, mix of Jurkat and Ramos cell lysates
  IC50: 10 µM
PPP4C; read-out: IC50
  IC50: ≥ 10 µM
SIN3A
  IC50: 0.57 µM
DNTTIP1
  IC50: 0.48 µM
GATAD2B
  IC50: 2.5 µM
MBD3
  IC50: 0.61 µM
MTA3; K-562 cell lysate
  IC50: 1.93 µM
MTA3; [3]
  IC50: 1.8 µM and 1.82 µM
SMARCC2; K-562 cell lysate
  IC50: 10 µM
SMARCC2; [3]
  IC50: 10 µM
RBBP7
  IC50: 10 µM

## Nc1ccccc1NC(=O)c1ccc(CNC(=O)OCc2cccnc2)cc1 [MS-275]
BZW2; read-out: IC50
  IC50: ≥ 300 µM
HSPD1; read-out: IC50
  IC50: ≥ 300 µM
ISOC1; read-out: IC50
  IC50: ≥ 300 µM
PPP4C; read-out: IC50
  IC50: ≥ 300 µM
DNTTIP1
  IC50: 300 µM
GATAD2A
  IC50: 300 µM
GATAD2B
  IC50: 300 µM
MBD3
  IC50: 300 µM
MTA3; K-562 cell lysate
  IC50: 300 µM
SMARCC2; K-562 cell lysate
  IC50: 300 µM
RBBP7
  IC50: 300 µM

## CCCCOc1ccc(CC(=O)NO)cc1 [bufexamac]
HDAC2
  Kd: > 59.7 µM
HDAC3
  Kd: 348 µM
HDAC8
  Kd: 243 µM
HDAC3-NCoR complex; [4]
  Kd: 599 µM
HDAC3-NCoR complex; [5]
  Kd: > 59.7 µM
HDAC3-NCoR complex; [6]
  Kd: 418 µM
HDAC3-NCoR complex; [7]
  Kd: 542 µM
HDAC3-NCoR complex; [8]
  Kd: 530 µM
[1]
  Kd: 151 µM

## Nc1ccccc1NC(=O)CCCCCCC(=O)Nc1ccccc1 [BML-210]
HDAC2
  Kd: 35 µM
HDAC3; K562 cell extract, compared with SAHA
  selectivity for HDAC3 over HDAC1/HDAC2 (in words): increase in selectivity for HDAC3 over HDAC1/HDAC2
HDAC3
  Kd: 7 µM
HDAC8
  Kd: > 85 µM
HDAC3-NCoR complex; [4]
  Kd: 4 µM
HDAC3-NCoR complex; [5]
  Kd: 7 µM
HDAC3-NCoR complex; [6]
  Kd: 15 µM
HDAC3-NCoR complex; [7]
  Kd: 4 µM
HDAC3-NCoR complex; [8]
  Kd: 4 µM
[2]; protein DNTTIP1, read-out: Kd^app DNTTIP1
  Kd: > 85 µM
[2]; protein MIDEAS, read-out: Kd^app MIDEAS
  Kd: > 85 µM
[1]
  Kd: > 85 µM
